Source: PubChem BioAssay (NCI)
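Compound exposure: 48 hours, 5 concentrations, 96-well plates. The concentration for 50% growth inhibition is given as GI50. Definition used: TGI = concentration required for complete inhibition of growth.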

Assays:
Assay in all cases: growth of human tumour cells (NCI), 48 h
[1] = system: A498 renal
[2] = system: NCI-H23 lung
[3] = system: UACC-257 melanoma
[4] = system: HOP-92 NSCLC
[5] = system: K-562 leukemia
[6] = system: ACHN renal
[7] = system: SN12C renal
[8] = system: RXF 393 renal
[9] = system: OVCAR-8 ovarian
[10] = system: PC-3 prostate

Structure (SMILES)	TGI [1] [µM]	TGI [2] [µM]	TGI [3] [µM]	TGI [4] [µM]	TGI [5] [µM]	TGI [6] [µM]	TGI [7] [µM]	TGI [8] [µM]	TGI [9] [µM]	TGI [10] [µM]	GI50 [1] [µM]	GI50 [2] [µM]	GI50 [4] [µM]	GI50 [5] [µM]	GI50 [6] [µM]	GI50 [7] [µM]	GI50 [8] [µM]
N#CC1(Cc2ccccc2Cl)c2ccccc2C=CN1C(=O)c1ccccc1 (configuration not stated)	> 100	> 100	> 100	> 100	> 100	> 100	> 100	> 100	> 100								
CC(=O)OCC1OC(n2c(-c3ccc(N)cc3)cc(-c3ccco3)c(C#N)c2=O)C(OC(C)=O)C(OC(C)=O)C1OC(C)=O (configuration not stated)	> 50	> 50	> 50	33.9		> 50	> 50	> 50	> 50								
O=C(/C=C(\O)C(=O)O)/C=C(\O)c1ccc(Cl)cc1	> 100	> 100	> 100	> 100	> 100	> 100	> 100	> 100	> 100								
O=C(Nc1ccc(Cl)cc1Cl)c1c/c(=N\O)c2ccc(O)cc2o1	> 100	> 100	> 100	> 100	> 100	> 100	> 100	> 100	> 100								
NNC(=S)N/N=C(\c1nc2ccc(Cl)cc2[nH]c1=O)C(O)c1ccc(Cl)cc1Cl (configuration not stated)	> 100	> 100	> 100	> 100	> 100	> 100	> 100	> 100	> 100								
COC(=O)c1nc(N)[nH]c(=O)c1-c1ccc(Cl)cc1	> 100	> 100	> 100	> 100	> 100	> 100	> 100	> 100	> 100								
Cc1ccc(NC(=O)C(=O)C2C(=O)C3=C(CC2(C)C)NC2C=CC=CC2S3)c(C)c1 (configuration not stated)		> 100	> 100	> 100		> 100	> 100	> 100	> 100	> 100							
COc1ccc(-c2cc(-c3ccco3)c(C#N)c(=O)n2C2OC(OC(=O)c3ccccc3)C(OC(=O)c3ccccc3)C2OC(=O)c2ccccc2)cc1 (configuration not stated)	> 100	> 100	> 100	54.5	> 100	> 100	> 100	63.7	> 100								
COC1=C(C(=O)OC(C)(C)C)C23CCCCC2(C(C(=O)OC(C)(C)C)=C(OC)C3C(=O)OC(C)(C)C)C1C(=O)OC(C)(C)C (configuration not stated)	> 100	> 100	> 100	89.5	> 100	> 100	> 100	> 100	> 100								
COC(=O)C(=O)C(C(=O)C(=O)Nc1ccc(Cl)cc1Cl)c1nc2ccc(Cl)cc2[nH]c1=O (configuration not stated)		> 100	> 100	> 100		> 100	> 100		> 100	> 100							
CC1=NN(C(=O)CC(=O)Nc2ccccc2)C(=O)C1N=Nc1ccc(S(N)(=O)=O)cc1 (configuration not stated)	> 100	> 100	> 100	> 100	> 100	> 100	> 100	> 100	> 100								
OCCOCn1nc(-c2ccccc2)nc1-c1cnccn1		> 100	> 100	> 100	> 100		> 100	> 100	> 100	> 100							
CC(=O)NC1=NC(=O)/C(=C/c2ccc(Cl)cc2Cl)N1C		> 100	> 100	> 100		> 100		> 100	> 100	> 100							
O=C(CCCCCCCCC(=O)OCCCn1cc(C(=O)NC(=O)OCc2ccccc2)c(=O)[nH]c1=O)OCCCn1cc(C(=O)NC(=O)OCc2ccccc2)c(=O)[nH]c1=O	> 100	> 100	> 100	> 100	> 100	> 100	> 100	> 100	> 100								
Cn1c(=O)c2[nH]c(Nc3ccccc3)nc2n(C)c1=O		> 10	> 10	> 10	> 10		> 10	> 10	> 10	> 10							
Nc1ccc(Cl)cc1.Nc1ccc(Cl)cc1.Nc1ccc(Cl)cc1.O=C([O-])C(=O)[O-].O=C([O-])C(=O)[O-].[H+].[Ru+5]	> 100	> 100	> 100	> 100	> 100	> 25.4	> 100	> 100	> 100		> 82.1	> 19.8	> 100	< 0.0169	0.0696	> 24.5	> 100
O=C(O)C(=O)/C=C\c1ccc(Cl)cc1	> 100	> 100	> 100	> 100	> 100	> 100	> 100	> 100	> 100								
